{"source": "patent US12691124B2", "about": "“Methods of controlling and improving brain health” (ICAHN SCHOOL OF MEDICINE AT MOUNT SINAI, priority 2019, dated 2026)", "key": {"3xTg mouse model": {"system": "3xTg mouse model", "settings": "prolonged JQ1 treatment; cited from earlier work"}, "[1]": {"system": "wild type and APP/PS1-21 mice", "settings": "cited from earlier work"}, "primary cortical neurons [2]": {"system": "primary cortical neurons", "assay": "Neuronal longevity in primary cortical neuron culture (LDH, propidium iodide, cleaved caspase 3)", "type": "cell-based, mouse", "settings": "PLX5622 together with IBET858", "description": "Primary Cortical Neuron Culture. Embryonic day 18 (E18) timed-pregnant female mice were anesthetized with CO2 and sacrificed by cervical dislocation. In a dissection hood, 24-26 embryos per experiment were collected through an incision of the mother's abdomen, taken out of the amniotic sacs and decapitated in ice cold Hank's Balanced Salt Solution (HBSS). Using fine scissors and forceps, brains were rapidly dissected and the cortex cleared from meninges and isolated under a dissection microscope. Cortices were collected in ice cold HBSS and kept on ice until all embryos had been dissected. In a tissue culture hood, HBSS was removed and the cortex tissue digested by 0.25% Trypsin-EDTA for 12 minutes at 37° C., followed by DNase1 treatment for 10 minutes at 37° C. The tissue was dissociated by serial trituration with a 25 ml serological pipette, followed by trituration with 10 ml and 5 ml serological pipettes. Cell suspension was washed once with DMEM medium, supplemented with 10% FBS and 1% penicillin/streptomycin and passed through a […] cell strainer before counted on a hemocytometer. Single cells were seeded on poly-D-lysine (0.1 mg ml-1) coated wells at a density of 1×10^6 cells per well on a 12-well plate. Cells were grown in Neurobasal medium, complemented with B27 supplement, N2 supplement, and 0.5 mM L-glutamine and maintained at 37° C. in 5% CO2 for 1 week. Cultures were treated with DMSO (0.2%), I-BET858 (1 μM, 0.2% DMSO), BDNF (50 ng/ml), or BDNF+I-BET858 for 2 and 12 h on day 7 in vitro. Cultures were washed with phosphate-buffered saline (PBS) on ice and processed for RNA isolation using TRIzol/Chloroform extraction.\nLDH Assay. LDH activity was measured using the Pierce LDH Cytotoxicity Assay Kit. Culture media was incubated with an equal volume of LDH master mix and incubated for 30 minutes at room temperature in the dark. After, the same volume of stop reagent was added and the absorbance was measured at 490 and 680 nm. Maximum LDH measurements were obtained by adding lysis buffer to release the total amount of LDH in the sample. LDH release is calculated as a percent of the maximum.\nPropidium Iodide Assay. Propidium iodide (1 mg/ml, Life Technologies #P3566) was added to each culture well at a final concentration of 0.5 μg/ml. Cultures were incubated for 30 minutes at 37 degrees then washed with PBS. Cells were then fixed with 4% paraformaldehyde in PBS for 15 minutes at room temperature. After fixation, cells were washed with PBS and then mounted using mounting media containing DAPI.\nIn order to understand the effect of chronic BET inhibition on neuronal survival, primary cortical mouse neurons were cultured in the presence or absence of the brain permeable BET inhibitor IBET858 (1 μM). To quantify cell death over time, the levels of lactate dehydrogenase (LDH) were measured in culture media which is presumably released during cell death as the membranes become permeable. […] The observed decrease in LDH activity after BET inhibition occurs in a dose-dependent manner. LDH activity, which is an indirect measure of cell death, may be affected by other factors such as changes in metabolism or expression of the LDH genes. Therefore in order to confirm these findings, propidium iodide (PI) staining was used to directly quantify the number of dead neurons over time. This membrane impermeable dye increases in fluorescence 20-30 fold after intercalating DNA265. […] To give context to the magnitude of this effect on survival, this experiment was repeated with a direct comparison to the mTOR inhibitor, rapamycin (20 nM)."}, "microglia": {"system": "microglia", "assay": "Microglia depletion by PLX in wild type mice", "settings": "mouse, in vivo", "description": "These models both have strong inflammatory components to their pathology; however it is important to understand the mechanism by which IBET858 improves symptoms. If the pathology is driven by microglial-mediated inflammation, it was hypothesized that depleting microglia from the brain should prevent neuronal degeneration and memory deficits as well. Therefore a pharmacological approach was used to deplete microglia in vivo by inhibiting the colony stimulating factor receptor 1 (CSF1R) which is required for microglial survival and kills 99% of microglia in one week in wild type mice. Elmore et al., “Colony-Stimulating Factor 1 Receptor Signaling is Necessary for Microglia Viability, Unmasking a Microglia Progenitor Cell in the Adult Brain,” Neuron 82:380-397 (2014), which is hereby incorporated by reference in its entirety.\nFirst, the PLX5622-mediated mediated reduction in microglia numbers is not sufficient to reduce inflammatory gene expression to the level that not only allows neuronal survival but also normal function. Second, while IBET858 clearly dampens microglia-mediated inflammation, its neuroprotective effect cannot be solely attributed to microglia and may in fact be a combinatorial effect on other cell types in the brain."}, "CK-p25 mice": {"system": "CK-p25 mice", "assay": "p25 (CK-p25) mouse model of Alzheimer's disease", "type": "in vivo"}, "BET proteins": {"system": "BET proteins", "settings": "cited from earlier work"}, "primary cortical neurons [3]": {"system": "primary cortical neurons", "assay": "Polar metabolite mass spectrometry in primary cortical neurons", "type": "cell-based, mouse", "settings": "acute exposure 24 h, 50 nM", "method": "Mass Spectrometry. Cell culture plates (2e6 cells per well n=7-8 per group) were washed with 75 mM Ammonium bicarbonate, pH 7.4, warmed to 37 degrees. Plates were quenched on liquid nitrogen for 10 seconds and then placed on dry ice. 1 ml of 70% Ethanol in MS-grade water was warmed to 75 degrees and added to each well. Plates were incubated in a 75 degree water bath for 3 minutes, shaking gently every minute. After 3 minutes, plates were placed on dry ice and once cooled, supernatants were lyophilized using the speed vacuum and stored at −80 degrees. Samples were shipped on dry ice to Cellzome who processed the samples for mass spectrometry and performed the initial analysis annotating metabolites. A semi-quantitative approach was used which determines the metabolite levels relative to a control rather than absolute concentrations. All detected ions were used for statistical analysis regardless of how many samples they were detected. This allows for the identification of low-abundant metabolites that may be present in only a subset of samples.\nIf IBET858 is indeed decreasing metabolism as indicated, comprehensive metabolic changes after BET inhibition should be observed. Therefore, an unbiased analysis of polar metabolites via mass spectrometry was employed (FIGS. 12A-12C). Accordingly, the levels of 100-150 unique metabolites are changed by chronic BET inhibition in primary cortical neurons."}}, "data": [{"smiles": "Cc1sc2c(c1C)C(c1ccc(Cl)cc1)=N[C@@H](CC(=O)OC(C)(C)C)c1nnc(C)n1-2", "note": "[JQ1]", "values": [{"measurement": "level of phosphorylated tau", "setting": "3xTg mouse model", "result": "decreased"}, {"measurement": "memory and learning deficits", "setting": "3xTg mouse model", "result": "did not have any effect"}, {"measurement": "cognitive deficits in APP/PS1-21 mouse model", "setting": "[1]; APP/PS1-21", "result": "rescued cognitive deficits"}, {"measurement": "memory, fear conditioning paradigm in wild type mice", "setting": "[1]; wild type mice", "result": "enhanced memory"}]}, {"smiles": "COc1ncc(F)cc1CNc1ccc(Cc2c[nH]c3ncc(C)cc23)c(F)n1", "note": "[PLX5622]", "values": [{"measurement": "neuronal longevity after IBET858 on pharmacological depletion of microglia", "setting": "primary cortical neurons [2]", "result": "did not alter longevity"}, {"measurement": "microglia after PLX in wild type mice", "setting": "microglia", "result": "fully depleted"}, {"measurement": "number of microglia compared to wild-type controls", "setting": "CK-p25 mice; CK-p25 mice treated with PLX", "result": "twice the number of microglia"}, {"measurement": "contextual recall (memory deficits)", "setting": "CK-p25 mice; PLX5622", "result": "made contextual recall worse"}, {"measurement": "neuronal and synapse loss", "setting": "CK-p25 mice; PLX5622", "result": "prevented neuronal and synapse loss"}]}, {"smiles": "Oc1ccc(C=Cc2cc(O)cc(O)c2)cc1", "note": "[Resveratrol, resveratrol]", "values": [{"measurement": "inhibition of BET proteins", "setting": "BET proteins", "result": "weakly inhibit"}]}, {"smiles": "C=C(C)[C@H]1Cc2c(ccc3c2O[C@@H]2COc4cc(OC)c(OC)cc4[C@@H]2C3=O)O1", "note": "[Rotenone, reference compound]", "values": [{"measurement": "metabolites changed", "setting": "primary cortical neurons [3]", "result": "300-500 metabolites"}]}]}
